Assay results: ChEMBL document CHEMBL1157437, “Synthesis and biological activities of reveromycin A and spirofungin A derivatives” (Bioorg Med Chem Lett, 2008)

Experiments:
[1] = biological target: T1, Isoleucine--tRNA ligase, cytoplasmic (Homo sapiens, UniProt P41252); assay: Inhibition of IleRS
T1 sequence (P41252 whole entry): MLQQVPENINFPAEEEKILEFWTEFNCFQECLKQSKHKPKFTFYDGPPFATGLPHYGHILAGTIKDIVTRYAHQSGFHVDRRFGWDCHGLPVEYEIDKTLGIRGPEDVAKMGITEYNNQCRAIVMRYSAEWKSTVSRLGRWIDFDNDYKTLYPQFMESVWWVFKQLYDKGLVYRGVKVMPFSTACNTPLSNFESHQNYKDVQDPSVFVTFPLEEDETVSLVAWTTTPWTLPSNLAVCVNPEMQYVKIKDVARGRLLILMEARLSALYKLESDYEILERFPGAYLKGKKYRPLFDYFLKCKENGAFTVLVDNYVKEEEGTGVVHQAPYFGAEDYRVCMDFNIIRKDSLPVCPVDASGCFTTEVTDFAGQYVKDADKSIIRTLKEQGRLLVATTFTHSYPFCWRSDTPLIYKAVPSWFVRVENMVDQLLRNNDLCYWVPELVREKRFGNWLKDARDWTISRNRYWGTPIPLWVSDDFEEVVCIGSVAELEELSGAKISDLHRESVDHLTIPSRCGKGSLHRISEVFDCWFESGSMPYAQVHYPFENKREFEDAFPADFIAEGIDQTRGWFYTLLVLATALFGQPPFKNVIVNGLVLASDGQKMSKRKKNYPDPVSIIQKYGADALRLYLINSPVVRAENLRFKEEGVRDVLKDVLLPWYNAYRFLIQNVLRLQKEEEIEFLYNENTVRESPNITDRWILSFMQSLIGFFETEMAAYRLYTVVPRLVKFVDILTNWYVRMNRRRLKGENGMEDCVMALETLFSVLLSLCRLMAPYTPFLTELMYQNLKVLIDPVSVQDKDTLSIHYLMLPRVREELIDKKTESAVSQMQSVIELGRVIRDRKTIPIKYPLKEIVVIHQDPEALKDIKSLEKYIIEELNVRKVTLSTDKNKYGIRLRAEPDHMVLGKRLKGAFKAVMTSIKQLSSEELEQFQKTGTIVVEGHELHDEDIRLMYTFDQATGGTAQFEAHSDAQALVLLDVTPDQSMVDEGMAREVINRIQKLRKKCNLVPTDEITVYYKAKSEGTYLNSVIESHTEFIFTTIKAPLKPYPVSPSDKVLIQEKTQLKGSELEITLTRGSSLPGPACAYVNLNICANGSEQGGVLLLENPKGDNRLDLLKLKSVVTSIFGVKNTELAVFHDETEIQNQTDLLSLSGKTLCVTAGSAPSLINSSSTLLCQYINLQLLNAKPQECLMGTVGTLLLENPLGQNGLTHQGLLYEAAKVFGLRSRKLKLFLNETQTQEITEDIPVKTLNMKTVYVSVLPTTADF

NRK [2] = assay: Effect on morphological reversion in src transformed NRK cells at 100 ug/mL; format: functional; details: Rattus norvegicus
NRK [3] = assay: Effect on morphological reversion in src transformed NRK cells at 30 ug/mL; format: functional; details: Rattus norvegicus
NRK [4] = assay: Effect on morphological reversion in src transformed NRK cells at 10 ug/mL; format: functional; details: Rattus norvegicus
NRK [5] = assay: Effect on morphological reversion in src transformed NRK cells at 3 ug/mL; format: functional; details: Rattus norvegicus
NRK [6] = assay: Effect on morphological reversion in src transformed NRK cells at 1 ug/mL; format: functional; details: Rattus norvegicus
Osteoclast = assay: Induction of apoptosis in mouse osteoclasts; format: functional
NRK [7] = assay: Effect on morphological reversion in src transformed NRK cells at 0.3 ug/mL; format: functional; details: Rattus norvegicus

Structure (SMILES)	IC50 [1] [nM]	inhibition at 100 µg/mL (NRK [2]) [%]	inhibition at 30 µg/mL (NRK [3]) [%]	inhibition at 10 µg/mL (NRK [4]) [%]	inhibition at 3 µg/mL (NRK [5]) [%]	inhibition at 1 µg/mL (NRK [6]) [%]	Activity (Osteoclast) [µg/mL]	inhibition at 0.3 µg/mL (NRK [7]) [%]
CCCC[C@@]1(OC)CC[C@]2(CC[C@H](C)[C@@H](C/C=C(C)/C=C/[C@H](O)[C@@H](C)/C=C/C(=O)O)O2)O[C@H]1/C=C/C(C)=C/C(=O)O	101	> 80	> 80	20	–	–	–	–
CCCC[C@@]1(OC(=O)CCC(=O)O)CC[C@]2(CC[C@H](C)[C@@H](C/C=C(C)/C=C/[C@H](OC(C)=O)[C@@H](C)/C=C/C(=O)O)O2)O[C@H]1/C=C/C(C)=C/C(=O)O	> 1420	> 80	> 80	50	< 10	< 10	0.46	–
CCCC[C@@]1(OC(=O)CCC(=O)O)CC[C@]2(CC[C@H](C)[C@@H](C/C=C(C)/C=C/[C@H](OC)[C@@H](C)/C=C/C(=O)O)O2)O[C@H]1/C=C/C(C)=C/C(=O)O	554	< 10	–	–	< 10	–	>15	–
CCCC[C@@]1(O)CC[C@]2(CC[C@H](C)[C@@H](C/C=C(C)/C=C/[C@H](O)[C@@H](C)/C=C/C(=O)O)O2)O[C@H]1/C=C/C(C)=C/C(=O)O	169	< 10	–	–	–	–	11.5	–
CCCC[C@@]1(OCSC)CC[C@]2(CC[C@H](C)[C@@H](C/C=C(C)/C=C/[C@H](O)[C@@H](C)/C=C/C(=O)O)O2)O[C@H]1/C=C/C(C)=C/C(=O)O	801	> 80	20	< 10	–	–	9.6	–
CCCC[C@@]1(OC(=O)CCC(=O)O)CC[C@]2(CC[C@H](C)[C@@H](C/C=C(C)/C=C/[C@H](O)[C@@H](C)CO)O2)O[C@H]1/C=C/C(C)=C/C(=O)O	36.9	> 80	20	< 10	< 10	< 10	6.31	< 10
CCCC[C@@]1(OC(=O)CCC(=O)O)CC[C@]2(CC[C@H](C)[C@@H](C/C=C(C)/C=C/[C@H](O[Si](C)(C)C(C)(C)C)[C@@H](C)/C=C/C(=O)O)O2)O[C@H]1/C=C/C(C)=C/C(=O)O	> 1290	< 10	–	–	–	–	5.9	–
CCCC[C@@]1(OC(=O)CCC(=O)OC)CC[C@]2(CC[C@H](C)[C@@H](C/C=C(C)/C=C/[C@H](O)[C@@H](C)/C=C/C(=O)O)O2)O[C@H]1/C=C/C(C)=C/C(=O)O	434	> 80	> 80	> 80	> 80	10	2.5	–
CCCC[C@@]1(OC(=O)CCC(=O)O)CC[C@]2(CC[C@H](C)[C@@H](CCO)O2)O[C@H]1/C=C/C(C)=C/C(=O)O	> 2010	< 10	< 10	< 10	< 10	–	–	–
CCCC[C@@]1(OC(=O)CCC(=O)O)CC[C@]2(CC[C@H](C)[C@@H](C/C=C(C)/C=C/C(=O)O)O2)O[C@H]1/C=C/C(C)=C/C(=O)O	> 1730	< 10	< 10	< 10	< 10	–	–	–
CCCC[C@@]1(OC(=O)CCC(=O)O)CC[C@]2(CC[C@H](C)[C@@H](C/C=C(C)/C=C/CO)O2)O[C@H]1/C=C/C(C)=C/C(=O)O	996	< 10	< 10	< 10	< 10	–	–	–
CCCC[C@@]1(OC(=O)CCC(=O)O)CC[C@]2(CC[C@H](C)[C@@H](C/C=C(\C)COC(=O)CCC(=O)O)O2)O[C@H]1/C=C/C(C)=C/C(=O)O	> 1570	< 10	< 10	< 10	< 10	–	>15	–
CCCC[C@@]1(OC(=O)CCC(=O)O)CC[C@]2(CC[C@H](C)[C@@H](C/C=C(C)/C=C/[C@H](O)[C@@H](C)/C=C/C(=O)OC)O2)O[C@H]1/C=C/C(C)=C/C(=O)O	313	> 80	> 80	> 80	20	< 10	2	–
CCCC[C@@]1(OC(=O)CCC(=O)O)CC[C@]2(CC[C@H](C)[C@@H](C/C=C(C)/C=C/[C@H](O)[C@@H](C)/C=C/C(=O)O)O2)O[C@H]1/C=C/C(C)=C/C(=O)OC	> 1480	> 80	> 80	10	< 10	< 10	3.1	–
CCCC[C@@]1(OC(=O)CCC(=O)O)CC[C@]2(CC[C@H](C)[C@@H](C/C=C(\C)CO)O2)O[C@H]1/C=C/C(C)=C/C(=O)O	> 1860	< 10	< 10	< 10	< 10	–	–	–
CCCC[C@@]1(OC(=O)CCC(=O)O)CC[C@]2(CC[C@H](C)[C@@H](C/C=C(C)/C=C/[C@@H](O)[C@@H](C)CCC(=O)O)O2)O[C@H]1/C=C/C(C)=C/C(=O)O [2,3-DIHYDRO-5-EPIREVEROMYCIN A]	88	50	< 10	< 10	< 10	–	0.82	–
CCCC[C@@]1(OC(=O)CCC(=O)O)CC[C@]2(CC[C@H](C)[C@@H](C/C=C(C)/C=C/[C@H](O)[C@@H](C)CCC(=O)O)O2)O[C@H]1/C=C/C(C)=C/C(=O)O [2,3-DIHYDROREVEROMYCIN A]	17.5	> 80	50	20	10	–	0.22	–
CCCC[C@@]1(OC(=O)CCC(=O)O)CC[C@]2(CC[C@H](C)[C@@H](C/C=C(C)/C=C/[C@H](O)[C@@H](O)/C=C/C(=O)O)O2)O[C@H]1/C=C/C(C)=C/C(=O)O [4-HYDROXY REVEROMYCIN A]	21.7	> 80	20	10	< 10	< 10	1.01	< 10
CCCC[C@@]1(OC(=O)CCC(=O)O)CC[C@]2(CC[C@H](C)[C@@H](C/C=C(C)/C=C/[C@@H](O)[C@@H](C)/C=C/C(=O)O)O2)O[C@H]1/C=C/C(C)=C/C(=O)O [5-EPIREVEROMYCIN A]	572	< 10	< 10	< 10	< 10	–	21.5	–
CCCC[C@]1([C@H](/C=C/C(C)=C/C(=O)O)OC(=O)CCC(=O)O)CC[C@]2(CC[C@H](C)[C@@H](C/C=C(C)/C=C/[C@H](O)[C@@H](C)/C=C/C(=O)O)O2)O1 [REVEROMYCIN B]	> 1510	< 10	–	–	< 10	–	>15	–
CC(/C=C/[C@H](O)[C@@H](C)/C=C/C(=O)O)=C\C[C@H]1O[C@@]2(CC[C@H](C)[C@H](/C=C/C(C)=C/C(=O)O)O2)CC[C@@H]1C [SPIROFUNGIN A]	1120	> 80	20	10	< 10	–	>30	–
CC(/C=C/[C@H](O)[C@@H](C)/C=C/C(=O)O)=C\C[C@H]1O[C@]2(CC[C@H](C)[C@H](/C=C/C(C)=C/C(=O)O)O2)CC[C@@H]1C [SPIROFUNGIN B]	> 1990	< 10	< 10	< 10	< 10	–	>30	–
